Assay results published in paper PMC12529164, “Design, Synthesis, Structure–Activity Relationships, and Preliminary Anticancer Properties of Menthol-Modified Coumarin Esters and 3,4-Dihydrocoumarin Derivatives” (ACS Omega, 2025).
Where two headings read alike, the source gives them in different places.

Assays:
[1] = tested on: SW620; test: Annexin V-FITC/PI flow cytometry; type: cell-based, human; conditions: SW620, compound at IC50, 72 h, mean
Procedure: (§1) The apoptotic and necrotic cells treated with derivatives 2b, 4a, 4b were detected using FITC Annexin V Apoptosis Detection Kit I (BD Biosciences Pharmingen). Briefly, cells (2 × 10^5 cells/well) were seeded in 6-well plates in supplemented medium. […] Then cells were harvested, washed, and labeled with Annexin V-FITC and propidium iodide (PI) according to the manufacturer’s protocol. The stained cells were analyzed by flow cytometry. The cells were identified as early apoptotic (Annexin V+/PI−) or late apoptotic/necrotic (Annexin V+/PI+).

[2] = tested on: HaCaT; test: Annexin V-FITC/PI flow cytometry; type: cell-based, human; conditions: compound at IC50, 72 h, mean
Procedure: as §1

[3] = tested on: tested cancer cell lines (SW480, SW620, PC3, MDA-MB-231); test: MTT assay, mean over tested cancer cell lines; type: cell-based; conditions: Homo sapiens, mean of the four cancer cell lines
Procedure: They were added to 96-well plates with seeded normal and cancer cells (1 × 10^4 cells per well) and incubated for 72 h. MTT analysis was performed according to a previous study. […]

[4] = tested on: IL-6 in SW620 cells; test: Interleukin-6 ELISA; type: cell-based, human; conditions: SW620, compound at IC50, 72 h
Procedure: (§2) The concentration of Interleukin-6 (IL-6) was measured in cell culture supernatant using Interleukin IL-6 High Sensitivity ELISA kit (Diaclon SAS, Besancon Cedex, France). Cells (1 × 10^5 cells/well) were seeded in 12-well plates with medium for 24 h. […] After this incubation, the supernatants were collected and 100 μL of supernatant samples, control solutions and blank were added to precoated ELISA plate with the preceding plotting of the standard curve. Then 50 μL of diluted biotinylated antihuman interleukin-6 antibody was added and incubated at room temperature for 3 h. Afterward, the plate was washed three times and 100 μL streptavidin-HRP solution was added to each well. After 30 min incubation, the plate was washed again three times and 100 μL of tetramethylbenzidine (TMB) solution was added to each well. The plate was incubated for 15 min in the dark. The reaction was stopped by adding 100 μL of H2SO4 solution. The absorbance was estimated using a spectrophotometer at 450 nm (Microplate Spectrophotometer Thermo Scientific Multiskan GO).

[5] = tested on: IL-6 in HaCaT cells; test: Interleukin-6 ELISA; type: cell-based, human; conditions: compound at IC50, 72 h; for IL-6 concentration: ELISA
Procedure: as §2

[6] = tested on: SW480; test: MTT cytotoxicity assay; type: cell-based, human; conditions: for SI SW480: SI = IC50 for normal cell line (HaCaT)/IC50 cancer cell line; for IC50: SW480, MTT, 72 h, human primary colon cancer
Procedure: (§3) The human primary (SW480) and metastatic (SW620) colon cancer, metastatic prostate cancer (PC3), breast adenocarcinoma (MDA-MB-231) and human immortal keratinocyte (HaCaT) cell lines were recruited from the American Type Culture Collection (ATCC). The cells were cultured in the recommended medium according to protocols (RPMI 1640 for PC3, MEM for SW480 and SW620, as well as DMEM for MDA-MB-231 and HaCaT cells) with addition of 10% FBS, penicillin (100 U/mL), and streptomycin (100 μg/mL) and cultured in 37 °C/5% CO2 in a humidified incubator. Then, the cells were passaged at a confluence of 80–90% by a treatment with 0.25% trypsin (Gibco Life Technologies) and used for studies.
(§4) They were added to 96-well plates with seeded normal and cancer cells (1 × 10^4 cells per well) and incubated for 72 h. MTT analysis was performed according to a previous study.

[7] = tested on: PC3; test: MTT cytotoxicity assay; type: cell-based, human; conditions: for IC50: PC-3, MTT, 72 h, human metastatic prostate cancer; for SI PC3: SI = IC50 for normal cell line (HaCaT)/IC50 cancer cell line
Procedure: as §3, §4

[8] = tested on: SW620; test: MTT cytotoxicity assay; type: cell-based, human; conditions: for SI SW620: SI = IC50 for normal cell line (HaCaT)/IC50 cancer cell line; for IC50: SW-620, MTT, 72 h, human metastatic colon cancer
Procedure: as §3, §4

[9] = tested on: MDA-MB-231; test: MTT cytotoxicity assay; type: cell-based, human; conditions: for IC50: MDA-MB-231, MTT, 72 h, human breast adenocarcinoma; for SI MDA-MB-231: SI = IC50 for normal cell line (HaCaT)/IC50 cancer cell line
Procedure: as §3, §4

[10] = Trypan blue assay; type: cell-based, human; conditions: human, HaCaT cells, compound at IC50, 72 h, mean
Procedure: (§5) The total cell count was assessed by trypan blue exclusion dye assay using automated cell counter (Countess Invitrogen). Untreated cells were used as the control. Each experiment was repeated 5 times.

[11] = tested on: SW620; test: Trypan blue assay; type: cell-based, human; conditions: SW620, compound at IC50, 72 h
Procedure: as §5

[12] = tested on: HaCaT; test: Trypan blue assay; type: cell-based, human; conditions: compound at IC50, 72 h; for cell number: mean; for reduction of number of cells: vs control
Procedure: as §5

[13] = tested on: HaCaT; test: MTT cytotoxicity assay, normal cells; type: cell-based; conditions: 72 h, human immortal keratinocytes (normal cells); for IC50: HaCaT
Procedure: as §3, §4

[14] = tested on: PC3; test: Annexin V-FITC/PI flow cytometry; type: cell-based, human; conditions: PC3, compound at IC50, 72 h, mean
Procedure: as §1

[15] = tested on: IL-6 in PC3 cells; test: Interleukin-6 ELISA; type: cell-based, human; conditions: PC3, compound at IC50, 72 h
Procedure: as §2

[16] = tested on: PC3; test: Trypan blue assay; type: cell-based, human; conditions: PC3, compound at IC50, 72 h
Procedure: as §5

[17] = read-out: average IC50 against tested cancer cell lines

SMILES | Early apoptosis [%] [2] [%] | Late apoptosis [%] [2] [%] | Necrosis [%] [2] [%] | IC50 [3, 17] [µM] | IL-6 concentration [5] [pg/mL] | SI SW480 [6] | IC50 [6] [µM] | IC50 [7] [µM] | SI PC3 [7] | SI SW620 [8] | IC50 [8] [µM] | IC50 [9] [µM] | SI MDA-MB-231 [9] | viability at 72 h [10] [%] | cell number [12] | reduction of number of cells [12] | IC50 [13] [µM] | further results
CCOP(=O)(OCC)c1cc2cccc(OC)c2oc1=O [Compound 2b, Diethyl (8-Methoxy-2-oxo-2H-chromen-3-yl)phosphonate] | 2.60 | 1.30 | 0.30 | > 77.5 | 11.3 ± 0.59 | 1 | > 100 | > 100 | 1 | 9.8 | 10.2 ± 1.63 | > 100 | 1 | 94.7 | 5.66 x106 | below 10% | > 100 | Necrosis [%] [1]: 0.60%; IL-6 concentration ([4]; ELISA): 2.1 ± 0.22 pg/mL; reduction of IL-6 level ([4]; vs control): 33.5%; increase in interleukin level ([5]; vs control): 10.7%; cell number ([11]; mean): 2.26 x106; viability (%) ([11]; mean): 98.66%; reduction of number of live cells ([11]; vs control): 36.4%; IC50 HaCaT [13]: did not show any cytotoxic effects
COc1cccc2c1OC(=O)C(C(=O)O[C@@H]1C[C@H](C)CC[C@H]1C(C)C)C2P(=O)(c1ccccc1)c1ccccc1 (mixture of isomers) [Compound 4b, (1R,2S,5R)-2-Isopropyl-5-methylcyclohexyl-4-(diphenylphosphoryl)-8-methoxy-2-oxochromane-3-carboxylate] | 2.55 | 0.85 | 0.45 | 28.7 | 10.5 ± 0.94 | 0.73 | 37.4 ± 2.45 | 9.9 ± 1.42 | 2.78 | 1.39 | 19.8 ± 0.63 | 47.6 ± 4.73 | 0.58 | 98.3 | 5.23 x106 | 16.6% | 27.6 ± 3.12 | Early apoptosis [%] [14]: 10.50%; Late apoptosis [%] [14]: 3.90%; Necrosis [%] [14]: 0.20%; IC50 ([3]; Table S7, >100 entered as 100, read-out: mean anticancer IC50): 28.7 µM; IL-6 concentration ([15]; ELISA): 0.9 ± 0.03 pg/mL; reduction of IL-6 level ([15]; vs control): 79.2%; reduction of IL-6 concentration ([5]; vs control): did not alter IL-6 secretion; cell number ([16]; mean): 4.26 x106; viability (%) ([16]; mean): 94%; reduction of number of live cells ([16]; vs control): 35.3%
